# In patent publication US6699685B1, “Method, test media and chromogenic compounds for identifying and differentiating general coliforms and escherichia coli bacteria” (RCR Scientific, Inc., priority 1990, dated 2004):
# Experiments:
# β-galactosidase [1] = system: β-galactosidase
# From the text: The chromogenic β-galactosidase substrate is a β-galactoside comprising galactose joined by β-linkage to a substituent that forms an insoluble precipitate of a first color when liberated by the action of β-galactosidase on the substrate.
# [2] = system: Acinetobacter calcoaceticus; experiment: Colony colour test of chromogenic substrate in medium (Example 1); type: cell-based
# From the text: (§1) 6-Chloroindolyl-β-D-galactoside and 5-bromo-4-chloro-3-indolyl-β-D-glucuronide (X-gluc) were each tested separately with 17 different bacterial species including β-galactosidase producing microorganisms, β-glucuronidase producing microorganisms, and microorganisms which produce neither enzyme.
# Enterobacter cloacae = experiment: as above; type: cell-based
# From the text: as §1
# Serratia marcescens = experiment: as above; type: cell-based
# From the text: as §1
# [3] = as above; type: cell-based; conditions: Staphylococcus faecalis
# From the text: as §1
# Salmonella typhimurium = experiment: as above; type: cell-based
# From the text: as §1
# Klebsiella pneumoniae = experiment: as above; type: cell-based
# From the text: as §1
# Bacillus cereus = experiment: as above; type: cell-based
# From the text: as §1
# [4] = system: Staphylococcus epidermidis; experiment: as above; type: cell-based
# From the text: as §1
# Pseudomonas aeruginosa = experiment: as above; type: cell-based
# From the text: as §1
# Citrobacter freundii = experiment: as above; type: cell-based
# From the text: as §1
# Bacillus megaterium = experiment: as above; type: cell-based
# From the text: as §1
# Escherichia coli = experiment: as above; type: cell-based; conditions: for colour of colonies grown in medium containing the substrate: E. coli, substrates tested separately
# From the text: as §1
# Bacillus subtilus = experiment: as above; type: cell-based
# From the text: as §1
# Staphylococcus aureus = experiment: as above; type: cell-based
# From the text: as §1
# Enterobacter aerogenes = experiment: as above; type: cell-based
# From the text: as §1
# Sarcina lutea = experiment: as above; type: cell-based
# From the text: as §1
# Proteus vulgaris = experiment: as above; type: cell-based
# From the text: as §1
# β-glucuronidase [5] = target: T1, β-glucuronidase (Escherichia coli, UniProt P05804); experiment: Precipitate formed by substrate upon reaction with enzyme; type: biochemical
# T1 construct: E. coli produces β-galactosidase, but, unlike general (other) coliforms, also produces β-glucuronidase; endogenous in cells; host or cells: Escherichia coli colonies growing in the test medium
# T1 sequence (P05804 whole entry): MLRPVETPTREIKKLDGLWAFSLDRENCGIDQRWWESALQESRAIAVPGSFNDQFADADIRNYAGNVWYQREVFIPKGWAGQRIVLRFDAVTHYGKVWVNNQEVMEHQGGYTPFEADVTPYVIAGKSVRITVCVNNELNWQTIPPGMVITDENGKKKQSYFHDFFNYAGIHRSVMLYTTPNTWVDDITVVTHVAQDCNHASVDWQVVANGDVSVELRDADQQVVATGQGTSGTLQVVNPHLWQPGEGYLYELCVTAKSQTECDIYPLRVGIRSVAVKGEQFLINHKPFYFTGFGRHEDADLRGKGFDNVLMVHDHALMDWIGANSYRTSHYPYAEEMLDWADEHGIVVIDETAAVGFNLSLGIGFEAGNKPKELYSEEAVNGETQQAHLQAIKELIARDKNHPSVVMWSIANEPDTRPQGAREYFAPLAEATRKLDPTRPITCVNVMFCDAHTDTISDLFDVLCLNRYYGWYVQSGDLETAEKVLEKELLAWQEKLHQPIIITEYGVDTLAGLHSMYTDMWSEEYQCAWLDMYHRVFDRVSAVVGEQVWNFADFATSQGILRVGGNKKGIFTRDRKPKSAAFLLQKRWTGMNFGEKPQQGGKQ
# From the text: The β-glucuronidase substrates and compounds described herein as “glucuronides” include carboxylate salts formed by reacting a suitable base with the glucuronic carboxyl group. Suitable bases include alkali metal or alkaline earth metal hydroxides or carbonates, for example, sodium hydroxide, potassium hydroxide, calcium hydroxide, magnesium hydroxide, and corresponding carbonates; and nitrogen bases such as ammonia and alkylamines such as trimethylamine, triethylamine and cyclohexylamine.
# β-galactosidase [6] = conditions: known test compound; cited from earlier work
# β-glucuronidase [7] = target: T1, β-glucuronidase; conditions: Watkins et al. 1988; cited from earlier work
# coliforms = experiment: Enzyme inducer added to medium; type: cell-based; conditions: approximately 25 mg/liter of medium; some species of coliforms
# From the text: It is possible that the enzyme production of the general coliforms may be enhanced by the addition to the medium formulations of very small amounts of substances known as enzyme inducers. The specific inducer for β-galactosidase is available and is known chemically as isopropyl-β-D-thiogalactopyranoside.
compound,measurement,setting,value
OC[C@H]1O[C@@H](Oc2c[nH]c3cc(Cl)ccc23)[C@H](O)[C@@H](O)[C@H]1O [6-chloroindolyl-β-D-galactoside],precipitate formed when reacted upon by β-galactosidase,β-galactosidase [1],insoluble magenta precipitate
same,coloured colonies in medium with 6-chloroindolyl-β-D-galactoside,[2],−
same,colour of colonies grown in medium containing the substrate,Enterobacter cloacae,magenta colonies
same,coloured colonies in medium with 6-chloroindolyl-β-D-galactoside,Enterobacter cloacae,+
same,coloured colonies in medium with 6-chloroindolyl-β-D-galactoside,Serratia marcescens,−
same,coloured colonies in medium with 6-chloroindolyl-β-D-galactoside,[3],−
same,coloured colonies in medium with 6-chloroindolyl-β-D-galactoside,Salmonella typhimurium,−
same,colour of colonies grown in medium containing the substrate,Klebsiella pneumoniae,magenta colonies
same,coloured colonies in medium with 6-chloroindolyl-β-D-galactoside,Klebsiella pneumoniae,+
same,coloured colonies in medium with 6-chloroindolyl-β-D-galactoside,Bacillus cereus,−
same,coloured colonies in medium with 6-chloroindolyl-β-D-galactoside,[4],−
same,coloured colonies in medium with 6-chloroindolyl-β-D-galactoside,Pseudomonas aeruginosa,−
same,colour of colonies grown in medium containing the substrate,Citrobacter freundii,magenta colonies
same,coloured colonies in medium with 6-chloroindolyl-β-D-galactoside,Citrobacter freundii,+
same,coloured colonies in medium with 6-chloroindolyl-β-D-galactoside,Bacillus megaterium,−
same,colour of colonies grown in medium containing the substrate,Escherichia coli,magenta colonies
same,coloured colonies in medium with 6-chloroindolyl-β-D-galactoside,Escherichia coli; Escherichia coli,+
same,coloured colonies in medium with 6-chloroindolyl-β-D-galactoside,Bacillus subtilus,−
same,coloured colonies in medium with 6-chloroindolyl-β-D-galactoside,Staphylococcus aureus,−
same,colour of colonies grown in medium containing the substrate,Enterobacter aerogenes,magenta colonies
same,coloured colonies in medium with 6-chloroindolyl-β-D-galactoside,Enterobacter aerogenes,+
same,coloured colonies in medium with 6-chloroindolyl-β-D-galactoside,Sarcina lutea,−
same,coloured colonies in medium with 6-chloroindolyl-β-D-galactoside,Proteus vulgaris,−
O=C(O)[C@H]1O[C@@H](Oc2c[nH]c3cc(Cl)ccc23)[C@H](O)[C@@H](O)[C@@H]1O [6-chloroindolyl-β-D-glucuronide],precipitate formed when reacted upon by β-glucuronidase,β-glucuronidase [5],insoluble magenta precipitate
"OC[C@H]1O[C@@H](Oc2c[nH]c3ccc(Br)c(Cl)c23)[C@H](O)[C@@H](O)[C@H]1O [X-gal, 5-bromo-4-chloro-3-indolyl-β-D-galactopyranoside]",precipitate formed when acted on by β-galactosidase,β-galactosidase [6],insoluble indigo blue precipitate
"O=C(O)[C@H]1O[C@@H](Oc2c[nH]c3ccc(Br)c(Cl)c23)[C@H](O)[C@@H](O)[C@@H]1O [X-gluc, 5-bromo-4-chloro-3-indolyl-β-D-glucuronide, reference compound]",precipitate formed when acted on by β-glucuronidase,β-glucuronidase [7],insoluble indigo blue precipitate
same,coloured colonies in X-gluc medium,[2],−
same,coloured colonies in X-gluc medium,Enterobacter cloacae,−
same,coloured colonies in X-gluc medium,Serratia marcescens,−
same,coloured colonies in X-gluc medium,[3],−
same,coloured colonies in X-gluc medium,Salmonella typhimurium,−
same,coloured colonies in X-gluc medium,Klebsiella pneumoniae,−
same,coloured colonies in X-gluc medium,Bacillus cereus,−
same,coloured colonies in X-gluc medium,[4],−
same,coloured colonies in X-gluc medium,Pseudomonas aeruginosa,−
same,coloured colonies in X-gluc medium,Citrobacter freundii,−
same,coloured colonies in X-gluc medium,Bacillus megaterium,−
same,colour of colonies grown in medium containing the substrate,Escherichia coli,indigo blue colonies
same,coloured colonies in X-gluc medium,Escherichia coli; Escherichia coli,+
same,coloured colonies in X-gluc medium,Bacillus subtilus,−
same,coloured colonies in X-gluc medium,Staphylococcus aureus,−
same,coloured colonies in X-gluc medium,Enterobacter aerogenes,−
same,coloured colonies in X-gluc medium,Sarcina lutea,−
same,coloured colonies in X-gluc medium,Proteus vulgaris,−
CC(C)S[C@@H]1O[C@H](CO)[C@H](O)[C@H](O)[C@H]1O [isopropyl-β-D-thiogalactopyranoside],effect on speed of enzyme (β-galactosidase) production,coliforms,positive and noticeable effect on the speed of enzyme production
